How the values were obtained:
Format in all cases: cell-based
[1] = target: T1, human glucocorticoid receptor (GR) (Homo sapiens, UniProt P04150); test: GRE Agonist Assay (ChagoK1 18:7:2 s4/GRE MMTV-GRE-LacZ reporter cell line)
T1 construct: endogenous in cells; host or cells: ChagoK1 18:7:2 s4/GRE (human bronchogenic carcinoma ChaGo K1, ATCC HTB 168, stably carrying MMTV-GRE-LacZ reporter)
T1 sequence (P04150 1-777): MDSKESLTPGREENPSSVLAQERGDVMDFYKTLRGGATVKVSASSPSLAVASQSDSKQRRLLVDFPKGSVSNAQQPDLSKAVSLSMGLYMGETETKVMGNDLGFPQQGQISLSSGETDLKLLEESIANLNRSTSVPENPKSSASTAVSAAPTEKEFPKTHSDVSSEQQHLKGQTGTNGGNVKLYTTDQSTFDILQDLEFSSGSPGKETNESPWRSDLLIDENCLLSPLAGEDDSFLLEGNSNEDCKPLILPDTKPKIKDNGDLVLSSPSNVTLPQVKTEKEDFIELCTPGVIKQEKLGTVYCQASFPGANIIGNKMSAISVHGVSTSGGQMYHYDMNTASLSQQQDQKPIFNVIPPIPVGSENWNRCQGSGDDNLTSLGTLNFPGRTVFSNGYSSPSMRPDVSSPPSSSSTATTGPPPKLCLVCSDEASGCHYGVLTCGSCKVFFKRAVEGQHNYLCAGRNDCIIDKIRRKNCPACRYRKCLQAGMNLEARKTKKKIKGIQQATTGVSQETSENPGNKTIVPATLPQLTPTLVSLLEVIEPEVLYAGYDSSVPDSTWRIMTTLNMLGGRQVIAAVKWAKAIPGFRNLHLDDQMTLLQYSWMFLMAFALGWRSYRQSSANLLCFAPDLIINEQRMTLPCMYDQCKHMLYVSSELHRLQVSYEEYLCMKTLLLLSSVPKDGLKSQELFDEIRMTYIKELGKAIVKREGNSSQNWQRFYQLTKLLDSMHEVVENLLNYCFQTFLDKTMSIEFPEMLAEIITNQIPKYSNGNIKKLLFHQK
Text: (§1) A reporter cell line (ChagoK1 18:7:2 s4/GRE) was established by stable transfection of the human bronchogenic carcinoma cell line, ChaGo K1 (ATCC: HTB 168) with a MMTV-GRE-LacZ reporter construct. The generated cell line allows for identification of compounds showing agonist activity at the human glucocorticoid receptor (GR) via induction of LacZ gene expression. Ligand-activated GR binds to the Glucocorticoid Response Element (GRE) in the promoter of the LacZ gene and transcription is initiated. The resulting beta-galactosidase activity is measured through a colour reaction (change in absorbance).
Cryo-preserved ChagoK1 18:7:2 s4/GRE cells were suspended in RPMI medium with 10% FBS, 1% NEAA and 1% sodium pyruvate, and seeded as 50000 cells/200 ul/well in 96-well plates and cultured at 37° C. with 5% CO2 and 95% humidity for 24 hours. 1 μl compound was added at different concentrations to the cells and incubated for another 24 hours. Cells were washed once in PBS and lysed with 50 al of 0.1% Triton-X for 10 min at room temperature. […] The plates were measured at 420 nm for absorbance in a SpectraMax reader (Molecular Device).
The relative efficacy (% effect) of a compound is calculated based on the full agonist effect of dexamethasone: % Effect=((Sample abs−min abs)/(max abs−min abs))×100 […]

[2] = system: release of TNFα from whole blood stimulated with LPS; test: In vitro human whole blood: inhibition of TNFα release after LPS stimulation; conditions: LPS 30 μg/mL, 18 hr, read-out: TNFα pIC50 (converted)
Procedure: The anti-inflammatory activity of compounds and prednisolone was determined in vitro by their ability to inhibit the release of TNFα from whole blood stimulated with LPS. Venous blood from human donors was collected and anti-coagulated with sodium heparin and transferred to a sterile polystyrene round bottomed plate (Corning) at 190 μL per well.
Compounds were prepared from 10 mM stock solutions in dimethylsulfoxide (DMSO, Sigma) by serially diluting 1/3 in DMSO to produce a master plate with the top concentration at 3.33 mM and the lowest concentration at 0.1 μM. Compounds from the master plate were added to the blood at 1 μL/well (1/200) dilution to give final concentrations ranging between […] and 0.5 nM. Control wells received 1 μL DMSO only and the final DMSO concentration in all wells was 0.5%. […]
TNFα protein levels were determined using an AlphaLISA hTNFα kit (Perkin Elmer) according to the manufacturer's instructions. […] The samples were read at 615 nm with excitation at 680 nm using an Envision plate reader. TNFα in the samples was determined by extrapolation from the standard curve and expressed as pg/mL.
The % inhibition of TNFα was determined by the equation: % inhibition=(1−(A−B)/(C−B))×100 Here, A=TNFα in LPS stimulated samples containing compound, B=TNFα in unstimulated samples. and C=TNFα in LPS stimulated samples without compound. […]

[3] = target: T1, human glucocorticoid receptor (GR); test: GRE Antagonist Assay (ChagoK1 18:7:2 s4/GRE reporter cell line, dexamethasone pre-stimulated); conditions: ChaGo-K-1, relative to full antagonist effect of Mifepristone (RU486), read-out: TA antagonist Observed max Effect at 1 μM (%)
Text: as §1, with “celline,” for “cell line,”, “antagonist” for “agonist”, “reduction” for “induction”, “Dexamethasone-activated” for “Ligand-activated”, “Antagonistic properties of compounds are assessed as” for “The resulting”, “intensity reduction from pre-stimulation with dexamethasone” for “activity is measured”
Cryo-preserved ChagoK1 18:7:2 s4/GRE cells were suspended in RPMI medium with 10% FBS, 1% NEAA and 1% sodium pyruvate, and seeded as 50000 cells/200 ul/well in 96-well plates and cultured at 37° C. with 5% CO2 and 95% humidity for 24 hr. Cells were pre-stimulated with 2 μl dexamethasone (70 nM final conc) for 4-5 hr, before addition of 1 μl compound at different concentrations and incubation for an additional 24 hr. […] The plates were measured at 420 nm for absorbance in a SpectraMax reader (Molecular Device).
The relative efficacy (% effect) of a compound is calculated based on the full antagonist effect of the reference compound Mifepristone (RU486): % Effect=((Sample abs−min abs)/(max abs−min abs))×100 […]

[4] = system: tyrosine aminotransferase (TAT) mRNA expression; test: Tyrosine aminotransferase (TAT) mRNA expression in vitro assay in human primary hepatocytes; conditions: 18 hr, human cryopreserved primary hepatocytes, versus DMSO control, 2^-ΔΔCt, range and n in brackets
Procedure: The impact of test compounds on hyperglycemic events were assessed by looking at changes in mRNA expression of the gene encoding tyrosine aminotransferase (TAT), which is under direct regulation of the glucocorticoid receptor in human hepatocytes.
Human cryopreserved primary hepatocytes (BioreclamationIVT, M00995-P lot EPB) were plated to 24-well collagen I-coated plates (Becton Dickinson, 354408). Cells were allowed to attach for 4 hr before being challenged with test compounds overnight (18 hr). Cells were harvested and total RNA isolated using RNeasy Plus Mini Kit (Qiagen, 74136) followed by cDNA synthesis using High Capacity cDNA reverse transcription kit (Applied Biosystems, 4368813). Real-time RT PCR was performed on an Applied Biosystems 7500 PCR cycler, using Taqman primers for TAT (Life technologies, Hs00356930_ml) and the reference gene hypoxanthine phosphoribosyltransferase 1 (Life technologies, Hs99999909_ml).
Human cryopreserved primary hepatocytes were transferred in to pre-warmed (37° C.) plating medium (BioreclamationIVT, Z990003) and diluted to 0.7×10^6 viable cells/mL. […] Real-time RT PCR was carried out using TaqMan reagents (Life technologies) on the 7500 PCR cycler, and Ct-values for TAT gene expression was normalised to the control gene and expressed as fold change compared to DMSO control using the 2^−ΔΔCt method.

| Compound | Emax at 1 µM ([1]; ChaGo-K-1, at 1 μM, relative to full agonist effect of dexamethasone, read-out: TA agonist Observed max Effect at 1 μM (%)) | EC50 ([1]; transactivation, agonist mode, 24 h incubation, read-out: TA agonist pEC50 (converted)) | IC50 [2] | Emax at 1 µM [3] | Fold Change Tyrosine Aminotransferase Gene Expression Relative to Control (1 μM) [4] |
| --- | --- | --- | --- | --- | --- |
| CC(C)[C@H](NC(=O)C(C)(F)F)[C@H](Oc1ccc2c(cnn2-c2ccc(=O)n(C)c2)c1)c1ccccc1 [Example 1, 2,2-difluoro-N-[(1R,2S)-3-methyl-1-{[1-(1-methyl-6-oxo-1,6-dihydropyridin-3-yl)-1H-indazol-5-yl]oxy}-1-phenylbutan-2-yl]propanamide] | 39% | 0.0126 µM | 0.631 µM | 70% | – |
| C[C@]12C=CC(=O)C=C1CC[C@@H]1[C@@H]2[C@@H](O)C[C@@]2(C)[C@H]1CC[C@]2(O)C(=O)CO [Prednisolone, reference compound] | – | – | 0.316 µM | – | 2.5 (1.4-4.2, n = 8) |
